Experimental findings from patent publication US12428405B2, “Chalcone-based chemotherapeutic compound for triple negative breast cancer” (QATAR UNIVERSITY, priority 2019, dated 2025) are described below.

Entries after “also recorded” stand apart in the source; their conditions may differ. Like-named read-outs stand apart in the source and are kept apart here.

Assay [1] relates to MDA-MB-231. Briefly: Migration (wound healing) assay. In kind it is cell-based. The conditions noted are these: for IC50: 24 hours of treatment, 5 concentrations, two independent experiments, read-out: Migratory IC50 MDA-MB-231; for activity at 5 µM: 24 hours post treatment, control = 100, Mean ± SEM (N = 2 × 2), read-out: % migration. As to the method:
MDA-MB-231 cells were seeded in 12-wells plates at a concentration of 500,000 cells/well and were incubated in complete RPMI culture medium until covering the well and reaching around 90-100% confluency. Following, cells were serum starved for 4 hours and a 200 μl pipette tip was used to create the scratch followed by cell washing with PBS twice. […] Microscopic pictures were then taken, and cell migration was quantified based on the wound diameter at 24 hours minus the initial diameter at time zero, as represented by the following equation: % Migration=[…]

The subject of assay [2] is TNBC (MDA-MB-231 and MDA-MB-231) and estrogen positive (MCF-7 and BT-474) cell lines. The assay is described as follows: MTT cell viability, breast cancer cell line panel (summary statements). In kind it is cell-based. The text has this: (§1) Breast cancer cell lines including MDA-MB-231, MDA-MB-468, MCF-7, BT-474 and SK-BR-3 were obtained from the American Type Tissue Culture (ATCC) and maintained in complete cell culture media Gibco® RPMI 1640 (Thermo Fisher Scientific, USA) supplemented with 10% fetal bovine serum (PAN-Biotech, Aidenbach, Bavaria, Germany) and 1% penicillin/streptomycin (1×) antibiotics (Thermo Fisher Scientific, USA). Human normal mammary epithelial cells immortalized by E6/E7 of HPV type 16 (HNME-E6/E7) were used to predict potential safety of the compounds (125, 126). They were maintained in Gibco® Keratinocyte-SFM (1×) media. All cells were incubated in 5% CO2 at 37° C. incubator. Cells were maintained by routine sub-culturing in T-75 and T25 filtered tissue culture flasks.
MDA-MB-231, MDA-MB-468, MCF-7, BT-474 and HNME-E6/E7 cells were seeded overnight in 96-well plates at a concentration of 8000-10,000/well depending on their pre-calculated cell density and were incubated overnight. At 24 hours, media was replaced with fresh one. The treatment wells included 6-8 different concentrations of the compounds ranging between 0.25 μM-160 μM. […] Absorbance was recorded at a wavelength of 562 nm after 3 minutes of shaking using Infinite 200 PRO Microplate Reader (Tecan, Switzerland). Percentage of viable cells was calculated using the following formula: […]

The subject of a further assay is MCF-7. The assay is described as follows: Morphological examination. The following applies: 10 μM; 48 hours. In kind it is cell-based. As to the method:
(§2) MCF-7, MDA-MB-231, MDA-MB-468 and HNME-E6/E7 cells were seeded in a 6-well plates at a concentration of 200,000-300,000 cells/well and were incubated overnight. After incubation, cells were treated with different compounds.

Assay [3] relates to MDA-MB-468. Briefly: Morphological examination. In kind it is cell-based. The conditions noted are these: 10 μM; 24 hours. The procedure:
as §2

Assay [4] concerns MDA-MB-231. The assay is described as follows: Morphological examination. In kind it is cell-based. The following applies: 10 μM. As to the method:
as §2

The next assay deals with EMT markers on MCF-7. The assay is described as follows: Western blot of EMT markers. The following applies: 5 and 10 μM. In kind it is cell-based. As to the method: (§3) Proteins were quantified with the Pierce BCA Protein Assay Kit (Thermo Scientific, USA) following cell lysis. SDS-PAGE was prepared at a concentration of 10% for all studied proteins. All samples were loaded at 40 μg per 1.5 mm 15 wells comb. Running of stained samples was performed using two steps gel electrophoresis (60 Volts for 20 minutes followed by 120 Volts for 1 hour). Afterwards, gels were transferred into PVDF membrane at 100 Voltage for 1.5-2.0 hours using wet transfer. Following transfer, PVDF membranes were blocked with 5% skimmed milk and washed three times. Primary antibodies (Table 2.2) were prepared, then PVDF membrane were incubated with them overnight with gentle shaking at 4° C. Afterwards, membranes were washed three times and incubated with their respective secondary antibodies for 1-2 hours with gentle shaking at room temperature. Pierce™ ECL Western Blotting Substrate was used to detect proteins by chemiluminescence. Blots were imaged using the ibrightCL1000 imaging system.

The test system of assay [5] is Epithelial Mesenchymal Transition (EMT) markers in MDA-MB-231 cells. Briefly: Western blot of EMT markers. In kind it is cell-based. The procedure: as §3
The test system of the next assay is tubulin. The assay is described as follows: Cell free tubulin polymerization assay. The conditions noted are these: N=1×2, colchicine and paclitaxel as controls. In kind it is biochemical. The procedure:
The effect of compound 14 on tubulin polymerization dynamics was assessed using the cell free Cytoskeleton tubulin polymerization assay kit, Version 8.3 (Cytoskeleton, Inc., USA). The experiment was conducted based on the manufacturer's recommendations. colchicine was used as a depolymerizing control while paclitaxel was used as a polymerizing control. Briefly, stock solutions of 10 μM of the compounds and controls were prepared in general tubulin buffer. Then, 10 μl of each solution was added in duplicates in half area 96-well plate prewarmed at 37° C. It was subsequently incubated at 37° C. for 2 minutes. Tubulin solution was prepared and 100 μl of it was added to each of the prewarmed wells of the compounds. The plate was immediately placed at a plate reader set up at kinetic modes and 37° C. temperature. Recording was conducted every minute for 60 minutes at 340 nm Absorbance.

Assay [6] has as its system MDA-MB-468. The assay is described as follows: PE Annexin V apoptosis assay (flow cytometry). In kind it is cell-based. The procedure: PE Annexin V apoptosis Detection Kit (BD Pharmingen, USA) was used to quantify cell apoptosis in treated versus untreated MDA-MB-468 cells at 24 and 48 hours post treatment. Briefly, cells were seeded at a density of 300,000 cells/well in 6-well plates. Second day, media was replaced with fresh media and treatment was added. Cells were harvested following treatment and each group of cells was stained with PE Annexin V and 7-AAD Annexin V as per the protocol specified on the kit. Samples were then analyzed by Accuri C6 flow cytometer (BD Biosciences, USA). The percentages of cells (viable cells, apoptotic cells, necrotic cells and dead cells) were quantified in each of the four quadrants. Data and figures were processed using the FlowJo V10 software.

Another assay relates to BT-474. Briefly: MTT cell viability. In kind it is cell-based.
From the text: as §1
MDA-MB-231, MDA-MB-468, MCF-7, BT-474 and HNME-E6/E7 cells were seeded overnight in 96-well plates at a concentration of 8000-10,000/well depending on their pre-calculated cell density and were incubated overnight. At 24 hours, media was replaced with fresh one. The treatment wells included 6-8 different concentrations of the compounds ranging between 0.25 μM-160 μM. At 48 hours post treatment, 10 μL MTT solution was added to each well followed by 4 hours of incubation. Afterwards, media with MTT was removed from all wells and 50 μl DMSO was added to each well to dissolve the crystals. This was followed by 5 minutes incubation. Absorbance was recorded at a wavelength of 562 nm after 3 minutes of shaking using Infinite 200 PRO Microplate Reader (Tecan, Switzerland). Percentage of viable cells was calculated using the following formula: […]

`CS(=O)(=O)c1ccc(C(=O)/C=C/c2ccc(N(CCCl)CCCl)cc2)cc1` [Compound 13, (E)-3-(4-(Bis(2-chloroethyl)amino)phenyl)-1-(4-(methylsulfonyl)phenyl) prop-2-en-1-one]: the IC50 with MDA-MB-231 [1] (Homo sapiens, MDA-MB-231, 24 h) is 5.71 ± 0.57 µM. In the assay on MDA-MB-231 [1] (Homo sapiens, MDA-MB-231, 5 μM), the activity at 5 µM amounted to 59.5 ± 2.75%. Also, in [2] (versus HNME-E6/E7 normal cells), the “selectivity, approximately similar between different breast cancer cell lines” value is about 3. Moreover, the cell morphology entry is “triggered cells to become larger in shape” in the assay with MCF-7; “obvious change in cell shape” in the assay on MDA-MB-468 [3]; “look more spherical in shape and to lose their mesenchymal fibroblastic property” with MDA-MB-231 [4] (24 hours); “Mainly single circular cells were obvious” with MDA-MB-231 [4] (48 hours).
Take `COc1cccc(C(=O)/C=C/c2ccc(N(CCCl)CCCl)cc2)c1` [Compound 14, (E)-3-(4-(Bis(2-chloroethyl)amino)phenyl)-1-(3-methoxyphenyl) prop-2-en-1-one]: the IC50 was 2.86 ± 0.197 µM in the assay with MDA-MB-231 [1]; 2.86 ± 0.2 µM in the assay on MDA-MB-231 [1] (Homo sapiens, MDA-MB-231, 24 h); 3.94 to 9.22 µM in assay [2] (TNBC and estrogen positive cell lines, read-out: anti-proliferative IC50 values, range over cell lines); 9.22 ± 0.78 µM in the assay with BT-474 (Homo sapiens, BT-474, 48 hours of treatment, Mean ± SEM (n = 3 × 3)). For the same compound, the activity at 5 µM in the assay on MDA-MB-231 [1] (Homo sapiens, MDA-MB-231, 5 μM) is 32.11 ± 0.17%. Besides, in the assay with MDA-MB-231 [1] (Homo sapiens, MDA-MB-231, 5 μM, 24 hours, read-out: inhibition of cell migration), the inhibition at 5 µM amounted to 67.89 ± 0.17%. The E-cadherin expression entry in the assay on EMT markers on MCF-7 is recorded as “concentration dependent upregulation”; in [5] (5 and 10 μM) it was “concentration dependent upregulation”. Besides, the pan-cadherin expression entry in the assay on EMT markers on MCF-7 is recorded as “upregulated by compound 14 in a concentration dependent manner”; in assay [5] (5 and 10 μM) it was “upregulated by compound 14 in a concentration dependent manner”. In addition, in assay [5] (MDA-MB-231), the “Focal adhesion kinase (FAK) expression” value is “downregulated”. For the same compound, the “expression of β-catenin and its phosphorylated form” value in assay [5] (cell line not named in the sentence (FIG. 3.24, FIG. 3.25)) is reported as “No significant changes”. In addition, the “EMT (in words)” value in assay [5] (summary statement) is listed as “reversal of EMT”. The “effect on tubulin polymerization (in words)” value in the assay on tubulin is “inhibited with an effect comparable to colchicine; also recorded: comparable to tubulin desterilizing agent, colchicine”. In addition, the cell morphology result in the assay with MCF-7 is on record as “induced cell shrinkage”; in the assay with MDA-MB-468 [3], “obvious change in cell shape”; with MDA-MB-231 [4] (24 hours), “did not induce a significant difference”; in the assay with MDA-MB-231 [4] (48 hours) it was “change in cell shape”. Also, in the assay on MDA-MB-468 [6] (24 and 48 hours), the “early and late apoptosis (in words)” value is given as “time dependent”. In the assay with MDA-MB-468 [6] (48 hours, N=1), this compound showed a rate of apoptosis of 28.00%. In the assay on BT-474 (ratio of LD50 on HNME-E6/E7 to IC50 on BT-474), the “SI of HNME/BT-474 (selective index)” value is on record as 2.24.

The IC50 is the concentration at which inhibition is half-maximal.
